# In patent US7410974B2, “Halogenated Quinazolinyl nitrofurans as antibacterial agents” (Ulysses Pharmaceutical Products, Inc., priority 2003, dated 2008):
# Like-named read-outs stand apart in the source and are kept apart here.
# Columns and labels:
# [1] = system: S. saprophyticus ATCC 15305; assay: MIC broth microdilution (NCCLS); format: cell-based, Staphylococcus saprophyticus; conditions: Staphylococcus saprophyticus, ATCC15305; S. saprophyticus ATCC 15305; read-out: MIC
# Procedure: (§1) Minimal Inhibitory Concentration (MIC) Determination. Bacteria (primary strain panel, TABLE 1). Susceptibility tests were performed following the recommendations from the National Committee for Clinical Standards (NCCLS). The MICs were determined by a broth microdilution technique using a final volume of 100 μl of cation-adjusted Mueller Hinton Broth (MHBCA) and a bacterial inoculum of 10^5-10^6 Colony Forming Units (CFU)/ml. The inocula were verified and precisely determined by applying 10-μl drops of 10-fold dilutions onto Triptic Soy Agar plates. The CFU were counted after an incubation of 24 h at 35° C. Any experiment showing an inoculum that was more or less than 10^5-10^6 CFU/ml was rejected. Control antibiotics and test compounds were prepared at a concentration equivalent to 2-fold the highest desired final concentration. Compounds were then diluted directly in the 96-well microtiter plates by serial 2-fold dilutions using a multichannel pipette. Microtiter plates were incubated during 24 h at 35° C. and growth was recorded by using a microtiterplate reader at 650 nm as well as by visual observation. The MIC was defined as the lowest concentration of compound yielding no visible growth. […] Fastidious bacteria. The medium used for Listeria monocytogenes, Neisseria meningitidis, and Campylobacter jejuni was MHBCA containing 2% laked horse blood. The medium used for Haemophilus influenzae and Branhamella (Moraxella) catarrhalis was HTM as recommended by the NCCLS. Cultures of these fastidious bacteria were incubated at 35° C. in a 5% CO2 atmosphere. […] The medium used for Bacteroides fragilis was Wilkins Chalgren broth and growth was allowed under an anaerobic atmosphere at 35° C. for 48 hours.
# [2] = system: Y. enterocolytica ATCC 23715; assay: MIC broth microdilution (NCCLS); format: cell-based, Yersinia enterocolytica; conditions: Yersinia, ATCC23715, read-out: MIC
# Procedure: as §1
# [3] = system: S. aureus MRSA COL; assay: MIC broth microdilution (NCCLS); format: cell-based, Staphylococcus aureus; conditions: Staphylococcus aureus, MRSA
# Procedure: as §1, with “hours. […]” for “hours.”
# [4] = system: S. epidermidis ATCC 12228; assay: MIC broth microdilution (NCCLS); format: cell-based, Staphylococcus epidermidis; conditions: Staphylococcus epidermidis, ATCC12228; S. epidermidis ATCC 12228; read-out: MIC
# Procedure: as §1
# [5] = system: A. baumannii ATCC 19606; assay: MIC broth microdilution (NCCLS); format: cell-based, Acinetobacter baumannii; conditions: Acinetobacter baumannii, ATCC19606, read-out: MIC
# Procedure: as §1
# [6] = system: S. typhimurium ATCC14028; assay: MIC broth microdilution (NCCLS); format: cell-based, Salmonella typhimurium; conditions: Salmonella enterica; S. typhimurium ATCC14028; read-out: MIC
# Procedure: as §1
# [7] = system: E. faecium ATCC 35667; assay: MIC broth microdilution (NCCLS); format: cell-based, Enterococcus faecium
# Procedure: as §1
# [8] = system: B. catarrhalis ATCC 8176; assay: Minimal Bactericidal Concentration (MBC); format: cell-based, Branhamella (Moraxella) catarrhalis; conditions: Moraxella catarrhalis, ATCC8176, 99.9% killing
# Procedure: (§2) Minimal Bactericidal Concentration (MBC). After the microtiter plates were read for the determination of the MIC, a 10-μl sample of each clear well (at least 5 wells without visible growth) was applied onto TSA plates for viable counts determination.
# (§3) Petri dishes were incubated at 35° C. for exactly 24 h and bacterial colonies were counted.
# [9] = system: E. faecium VanA; assay: MIC broth microdilution, antibiotic resistant strain panel; format: cell-based; conditions: Enterococcus faecium
# Procedure: as §1
# (§4) Finally, compounds were also tested against populations of various clinical strains (antibiotic resistant strain panel, TABLE 1).
# [10] = system: S. aureus ATCC 29213; assay: MIC broth microdilution (NCCLS); format: cell-based, Staphylococcus aureus; conditions: Staphylococcus aureus, ATCC29213; S. aureus ATCC 29213; read-out: MIC
# Procedure: as §1
# [11] = system: B. catarrhalis ATCC 8176; assay: MIC broth microdilution (NCCLS), fastidious bacteria; format: cell-based, Branhamella (Moraxella) catarrhalis; conditions: Moraxella catarrhalis, ATCC8176, HTM, 5% CO2
# Procedure: as §1
# [12] = system: E. coli ATCC 25922; assay: MIC broth microdilution (NCCLS); format: cell-based, Escherichia coli; conditions: Escherichia coli, ATCC25922, E. coli ATCC 25922 (Reference); read-out: MIC
# Procedure: as §1
# [13] = system: H. influenzae ATCC 49766; assay: MIC broth microdilution (NCCLS), fastidious bacteria; format: cell-based; conditions: Haemophilus influenzae, ATCC49766, HTM, 5% CO2
# Procedure: as §1
# [14] = system: H. influenzae ATCC 49247; assay: as above; format: cell-based; conditions: Haemophilus influenzae, ATCC49247, HTM, 5% CO2
# Procedure: as §1
# [15] = system: H. influenzae ATCC 49766; assay: Minimal Bactericidal Concentration (MBC); format: cell-based; conditions: Haemophilus influenzae, ATCC49766, 99.9% killing
# Procedure: as §2, §3
# [16] = system: H. influenzae ATCC 49247; assay: Minimal Bactericidal Concentration (MBC); format: cell-based; conditions: Haemophilus influenzae, ATCC49247, 99.9% killing
# Procedure: as §2, §3
# [17] = system: E. faecalis ATCC 29212; assay: MIC broth microdilution (NCCLS); format: cell-based, Enterococcus faecalis; conditions: Enterococcus faecalis, ATCC29212; E. faecalis ATCC 29212; read-out: MIC
# Procedure: as §1
# [18] = system: MRSA strain Sa211c; assay: MIC broth microdilution, antibiotic resistant strain panel; format: cell-based, Staphylococcus aureus; conditions: Staphylococcus aureus; multi-resistant MRSA strain Sa211c; read-out: MIC
# Procedure: as §1, §4
# [19] = system: MRSA strain Sa220c; assay: as above; format: cell-based, Staphylococcus aureus; conditions: Staphylococcus aureus; multi-resistant MRSA strain Sa220c; read-out: MIC
# Procedure: as §1, §4
# [20] = system: MRSA strain Sa253c; assay: as above; format: cell-based, Staphylococcus aureus; conditions: Staphylococcus aureus; multi-resistant MRSA strain Sa253c; read-out: MIC
# Procedure: as §1, §4
# [21] = system: MRSA strain Sa228c; assay: as above; format: cell-based, Staphylococcus aureus; conditions: Staphylococcus aureus; multi-resistant MRSA strain Sa228c; read-out: MIC
# Procedure: as §1, §4
# [22] = system: MRSA strain Sa224c; assay: as above; format: cell-based, Staphylococcus aureus; conditions: Staphylococcus aureus; multi-resistant MRSA strain Sa224c; read-out: MIC
# Procedure: as §1, §4
# [23] = system: MRSA strain Sa248c; assay: as above; format: cell-based, Staphylococcus aureus; conditions: Staphylococcus aureus; multi-resistant MRSA strain Sa248c; read-out: MIC
# Procedure: as §1, §4
# [24] = system: MRSA strain Sa249c; assay: as above; format: cell-based, Staphylococcus aureus; conditions: Staphylococcus aureus; multi-resistant MRSA strain Sa249c; read-out: MIC
# Procedure: as §1, §4
# [25] = system: MRSA strain Sa234c; assay: as above; format: cell-based, Staphylococcus aureus; conditions: Staphylococcus aureus; multi-resistant MRSA strain Sa234c; read-out: MIC
# Procedure: as §1, §4
# [26] = system: MRSA strain Sa212c; assay: as above; format: cell-based, Staphylococcus aureus; conditions: Staphylococcus aureus; multi-resistant MRSA strain Sa212c; read-out: MIC
# Procedure: as §1, §4
# [27] = system: M. smegmatis ATCC 19420; assay: MIC broth microdilution (NCCLS), fastidious bacteria; format: cell-based, Mycobacterium smegmatis; conditions: Mycolicibacterium smegmatis, ATCC19420, read after 48 hours
# Procedure: as §1
# [28] = system: L. monocytogenes ATCC 13932; assay: as above; format: cell-based; conditions: Listeria monocytogenes, ATCC13932, MHBCA with 2% laked horse blood, 5% CO2
# Procedure: as §1
# [29] = Enterococcus faecium, ATCC35667, E. faecium ATCC 35667, read-out: MIC
# [30] = multi-resistant E. faecium VanA, read-out: MIC
# [31] = S. aureus MRSA COL, read-out: MIC
compound,measurement,setting,value
CO/N=C(\C(=O)N[C@@H]1C(=O)N2C(C(=O)O)=C(COC(C)=O)CS[C@H]12)c1csc(N)n1 [Cefotaxime],MIC,[1],8 mg/L
same,MIC,[2],> 2 mg/L
same,MIC,[3],512 mg/L
same,MIC,[4],0.5 to 1 mg/L
same,MIC,[5],16 mg/L
same,MIC,[6],> 2 mg/L
same,MIC,[7]; [29],16 mg/L
same,MBC,[8],0.06 mg/L
same,MIC,[9]; [30],> 128 mg/L
same,MIC,[10],1 to 2 mg/L
same,MIC,[11],0.03 mg/L
same,MIC,[12],0.06 to 0.12 mg/L
same,MIC,[13],0.008 mg/L
same,MIC,[14],0.12 mg/L
same,MBC,[15],0.008 mg/L
same,MBC,[16],0.12 mg/L
same,MIC,[17],2 to 8 mg/L
CC[C@H]1OC(=O)[C@H](C)[C@@H](O[C@H]2C[C@@](C)(OC)[C@@H](O)[C@H](C)O2)[C@H](C)[C@@H](O[C@@H]2O[C@H](C)C[C@H](N(C)C)[C@H]2O)[C@](C)(O)C[C@@H](C)C(=O)[C@H](C)[C@@H](O)[C@]1(C)O [Erythromycin],MIC,[1],0.25 mg/L
same,MIC,[3]; [31],0.25 mg/L
same,MIC,[4],0.5 mg/L
same,MIC,[18],> 32 mg/L
same,MIC,[19],0.5 mg/L
same,MIC,[20],> 128 mg/L
same,MIC,[21],> 32 mg/L
same,MIC,[22],> 32 mg/L
same,MIC,[23],> 128 mg/L
same,MIC,[24],> 128 mg/L
same,MIC,[25],> 32 mg/L
same,MIC,[26],> 32 mg/L
same,MIC,[7]; [29],2 mg/L
same,MBC,[8],0.12 mg/L
same,MIC,[10],0.5 mg/L
same,MIC,[11],0.06 mg/L
same,MIC,[12],64 mg/L
same,MIC,[13],8 mg/L
same,MIC,[14],2 mg/L
same,MBC,[15],16 mg/L
same,MBC,[16],2 mg/L
same,MIC,[17],2 to 4 mg/L
C[C@@H](O)[C@H]1C(=O)N2C(C(=O)O)=C(S[C@@H]3CN[C@H](C(=O)N(C)C)C3)[C@H](C)[C@H]12 [Meropenem],MIC,[1],0.25 mg/L
same,MIC,[2],> 0.5 mg/L
same,MIC,[3]; [31],16 mg/L
same,MIC,[4],0.06 mg/L
same,MIC,[5],2 mg/L
same,MIC,[7]; [29],16 mg/L
same,MBC,[8],0.008 mg/L
same,MIC,[10],0.06 mg/L
same,MIC,[11],0.002 mg/L
same,MIC,[12],0.015 to 0.06 mg/L
same,MIC,[13],0.03 mg/L
same,MIC,[14],0.06 mg/L
same,MBC,[15],0.06 mg/L
same,MBC,[16],0.06 mg/L
same,MIC,[17],2 to 4 mg/L
NC(=O)N/N=C/c1ccc([N+](=O)[O-])o1 [Nitrofurazone],MIC,[1],8 mg/L
same,MIC,[2],64 mg/L
same,MIC,[3]; [31],8 to 16 mg/L
same,MIC,[4],8 mg/L
same,MIC,[5],32 mg/L
same,MIC,[27],64 mg/L
same,MIC,[6],8 mg/L
same,MIC,[7]; E. faecium ATCC 35667,>64 mg/L
same,MIC,[7]; [29],128 mg/L
same,MIC,[9]; [30],64 mg/L
same,MIC,[10],16 mg/L
same,MIC,[12],8 to 16 mg/L
same,MIC,[17],64 mg/L
CO[C@H]1/C=C/O[C@@]2(C)Oc3c(C)c(O)c4c(O)c(c(/C=N/N5CCN(C)CC5)c(O)c4c3C2=O)NC(=O)/C(C)=C\C=C\[C@H](C)[C@H](O)[C@@H](C)[C@@H](O)[C@@H](C)[C@H](OC(C)=O)[C@@H]1C [Rifampicin],MIC,[1],0.03 mg/L
same,MIC,[2],8 mg/L
same,MIC,[3]; [31],0.008 to 0.015 mg/L
same,MIC,[4],0.004 to 0.008 mg/L
same,MIC,[5],4 mg/L
same,MIC,[27],8 mg/L
same,MIC,[7]; [29],32 mg/L
same,MIC,[9],> 128 mg/L
same,MIC,[10],0.008 to 0.015 mg/L
same,MIC,[12],8 mg/L
same,MIC,[28],0.06 mg/L
same,MIC,[17],0.5 to 1 mg/L
